Assay results reported in US8470825B2, “Diazabenzo[de] anthracen-3-one compounds and methods for inhibiting PARP” (Eisai Inc., priority 2005, dated 2013).

Experiments:
[1] = Sensory nerve conduction velocity (SNCV) in cisplatin-induced neuropathy in rats; type: in vivo; conditions: for SNCV at the end of the experiment, mean: tail nerve; for tail nerve conduction velocity impairment due to chronic cisplatin treatment: co-administration of compound 4i 40 mg/kg PO daily
Experimental: In this experiment, female Wistar Hannover rats were dosed with neuropathy inducing doses of cisplatin (2 mg/kg IP; twice a week for 4 weeks) with and without compound 4i (40 mg/kg PO daily). The rats were monitored for changes in sensory nerve conduction velocity (SNCV) in the caudal nerve at baseline (pre-cisplatin dosing) and after treatment. Additionally, dorsal root ganglion and sciatic nerve specimens with morphometric analysis on dorsal root ganglion neurons (somatic, nuclear and nucleolar size) were assessed histopathologically. At the beginning and end of the treatment period, each animal underwent the determination of SNCV in the tail as previously described in Cavaletti et al., “Protective Effects of glutathione on cisplatin neurotoxicity in rats,” Int. J. Radiation Oncology, 29, 771-776 (1994) and […] et al., “Low-Dose Glutathione administration in the prevention of cisplatin-induced peripheral neuropathy in rats,” Neuro toxicology, 15, 701-704 (1994). The antidromic SNCV in the tail nerve was assessed by placing recording ring electrodes distally in the tail, while the stimulating ring electrodes were placed 5 cm and 10 cm proximally with respect to the recording point. The latencies of the potentials recorded at the 2 sites after nerve stimulation were determined (peak-to-peak) and nerve conduction velocity was calculated accordingly. The differences in nerve conduction velocity, and in morphometric data obtained in dorsal root ganglia neurons during the experiment were statistically evaluated using the analysis of variance (ANOVA) and the Tukey-Kramer post-test (significance level set at p<0.05).

DRG neurons = assay: DRG neuron morphometry in cisplatin-induced neuropathy in rats; type: in vivo
Experimental: In this experiment, female Wistar Hannover rats were dosed with neuropathy inducing doses of cisplatin (2 mg/kg IP; twice a week for 4 weeks) with and without compound 4i (40 mg/kg PO daily). The rats were monitored for changes in sensory nerve conduction velocity (SNCV) in the caudal nerve at baseline (pre-cisplatin dosing) and after treatment. Additionally, dorsal root ganglion and sciatic nerve specimens with morphometric analysis on dorsal root ganglion neurons (somatic, nuclear and nucleolar size) were assessed histopathologically. Left L5 dorsal-root ganglia (DRG) of rats from each group were obtained from the sacrificed animals and processed according to previously reported protocols [Cavaletti et al.: […] et al]], resin embedded, and used for light and electron microscope observations and morphometry. On 1 μm thick semithin sections, morphometric determinations of the cross sectional area of the somata, nuclei and nucleoli of DRG neurons were performed using an image analysts software (Image J, NIH). The differences in nerve conduction velocity, and in morphometric data obtained in dorsal root ganglia neurons during the experiment were statistically evaluated using the analysis of variance (ANOVA) and the Tukey-Kramer post-test (significance level set at p<0.05).

[2] = target: purified recombinant human PARP (Homo sapiens (Human), UniProt P09874); assay: PARP enzyme assay (IC50); type: biochemical; conditions: approximate IC50 values
purified recombinant human PARP, sequence (P09874 whole entry): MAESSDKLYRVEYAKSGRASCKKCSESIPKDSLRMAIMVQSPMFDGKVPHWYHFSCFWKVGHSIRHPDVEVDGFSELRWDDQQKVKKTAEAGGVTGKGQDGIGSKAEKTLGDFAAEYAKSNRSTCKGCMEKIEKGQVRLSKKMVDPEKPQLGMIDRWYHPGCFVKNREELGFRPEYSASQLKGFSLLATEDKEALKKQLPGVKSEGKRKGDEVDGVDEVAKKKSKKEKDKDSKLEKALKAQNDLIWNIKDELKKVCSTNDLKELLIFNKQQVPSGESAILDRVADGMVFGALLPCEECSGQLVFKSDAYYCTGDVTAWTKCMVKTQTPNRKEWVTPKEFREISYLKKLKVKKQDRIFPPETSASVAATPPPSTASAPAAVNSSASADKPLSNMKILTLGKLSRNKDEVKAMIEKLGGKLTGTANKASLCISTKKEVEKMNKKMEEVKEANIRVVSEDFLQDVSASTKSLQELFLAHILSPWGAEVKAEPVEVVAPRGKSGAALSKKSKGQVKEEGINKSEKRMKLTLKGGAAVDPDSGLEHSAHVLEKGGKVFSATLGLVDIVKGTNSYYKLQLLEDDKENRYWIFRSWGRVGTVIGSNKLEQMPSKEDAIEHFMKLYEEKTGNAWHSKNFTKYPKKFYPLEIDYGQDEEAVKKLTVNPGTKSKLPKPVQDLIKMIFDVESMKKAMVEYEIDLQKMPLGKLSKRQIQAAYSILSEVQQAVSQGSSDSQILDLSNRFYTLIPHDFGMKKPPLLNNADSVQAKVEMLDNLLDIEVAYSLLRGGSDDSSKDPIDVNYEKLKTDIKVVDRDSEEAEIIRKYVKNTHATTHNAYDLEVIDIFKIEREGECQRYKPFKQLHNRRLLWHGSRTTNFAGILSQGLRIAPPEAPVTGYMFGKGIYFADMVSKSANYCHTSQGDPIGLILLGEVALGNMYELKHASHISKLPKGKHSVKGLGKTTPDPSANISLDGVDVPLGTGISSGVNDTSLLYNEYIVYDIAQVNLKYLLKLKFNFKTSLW
Experimental: A convenient method to determine IC50 of a PARP inhibitor compound is a PARP assay using purified recombinant human PARP from Trevigan (Gaithersburg, MD), as follows: The PARP enzyme assay is set up on ice in a volume of 100 microliters consisting of 100 mM Tris-HCl (pH 8.0), 1 mM MgCl2, 28 mM KCl, 28 mM NaCl, 0.1 mg/ml of DNase I activated herring sperm DNA (Sigma, Mo.), 3.0 micromolar [3H]nicotinamide adenine dinucleotide (470 mci/mmole), 7 micrograms/ml PARP enzyme, and various concentrations of the compounds to be tested. The reaction is initiated by incubating the mixture at 25° C. After 15 minutes of incubation, the reaction is terminated by adding 500 microliters of ice cold 20% (w/v) trichloroacetic acid. The precipitate formed is transferred onto a glass fiber filter (Packard Unifilter-GF/B) and washed three times with ethanol. After the filter is dried, the radioactivity is determined by scintillation counting.

B16 melanoma = assay: Subcutaneous B16 melanoma growth in mice, compound + temozolomide; type: in vivo; conditions: Compound 4i 40 mg/kg po + TMZ 100 mg/kg ip once a day for five days; s.c. tumor; day 9 to day 23
Experimental: The efficacy of TMZ±Compound 4i treatment was also evaluated on melanoma growing subcutaneously (s.c.) in mice. For this purpose B16 cells (2.5×10^5) were inoculated s.c. in the flank of the animal. Tumors were measured with calipers and volume calculated according to the formula: [(width)^2×length]/2. Drug treatment started 6 days after challenge, when the volume of tumor nodules reached 100-150 mm^3. Compound 4i (40 mg/kg po) was administered at 20 min before temozolomide (100 mg/kg ip) once a day for five days. Melanoma growth was monitored by measuring tumor nodules every 3 days for 3 weeks.

[3] = test system: Murine melanoma B16 cells; assay: Survival of mice bearing intracranial B16 melanoma, compound + temozolomide; type: in vivo; conditions: for MST: B16 melanoma in brain; for ILS vs TMZ: increase in lifespan
Experimental: The intracranial transplantation procedure was performed as described in Tentori L. et al., “Effects of single or split exposure of leukemic cells to temozolomide, combined with poly(ADP-ribose) polymerase inhibitors on cell growth, chromosomal aberrations and base excision repair components,” Cancer Chemother Pharmacol, 47, 361-9 (2001). Murine melanoma B16 cells (10^4) were injected intracranially (ic) into male B6D2F1 (C578L/6×DBA/2) mice. Histological evaluation of tumor growth in the brain was performed 1-5 days after tumor challenge, in order to determine the timing of treatment.
Compound 4i was dissolved in 70 mM PBS without potassium and administered po 1 h before temozolomide (TMZ). TMZ was dissolved in dimethyl-sulfoxide (40 mg/ml), diluted in saline (5 mg/ml) and administered ip at a dose of 100 mg/Kg for five days. Mice were treated with compound 4i by oral gavages once a day for five days, at doses of 10 or 40 mg/kg/day. Median survival times (MST) were determined and the percentage of increase in lifespan (ILS) was calculated as: {[MST (days) of treated mice/MST (days) of control mice]−1}×100. Efficacy of treatments was evaluated by comparing survival curves between treated and control groups.

[4] = Tukey's multiple comparison test

[NH2][Pt]([NH2])([Cl])[Cl] [CDDP, Cisplatin, reference compound]
SNCV at the end of the experiment, mean ([1]; CDDP alone 2 mg/kg IP twice a week for 4 weeks): 28.62 m/sec | Morphometry on DRG, Nu (nucleus), mean (DRG neurons; CDDP alone): 114.3 μm^2 | Morphometry on DRG, Nucl (nucleolus), mean (DRG neurons; CDDP alone): 7.651 μm^2 | Morphometry on DRG, Soma, mean (DRG neurons; CDDP alone): 683.4 μm^2

CC(C)N1CCN(Cc2ccc3c(c2)-c2n[nH]c(=O)c4cccc(c24)O3)CC1 [Compound 4a, 10-(4-Isopropyl-piperazin-1-ylmethyl)2H-7-oxa-1,2-diaza-benzo[de]anthracen-3-one]
IC50 [2]: 30 nM

COCCN1CCN(Cc2ccc3c(c2)-c2n[nH]c(=O)c4cccc(c24)O3)CC1 [Compound 4b, 10-[4-(2-Methoxy-ethyl)-piperazin-1-ylmethyl]-2H-7-oxa-1,2-diaza-benzo[de]anthracen-3-one]
IC50 [2]: 20 nM

O=c1[nH]nc2c3c(cccc13)Oc1ccc(CN3CCN(c4ncccn4)CC3)cc1-2 [Compound 4c, 10-(4-Pyrimidin-2-yl-piperazin-1-ylmethyl)-2H-7-oxa-1,2-diaza-benzo[de]anthracen-3-one]
IC50 [2]: 30 nM

O=C1CN(Cc2ccc3c(c2)-c2n[nH]c(=O)c4cccc(c24)O3)CCN1 [Compound 4d, 10-(3-Oxo-piperazin-1-ylmethyl)-2H-7-oxa-1,2-diaza-benzo[de]anthracen-3-one]
IC50 [2]: 20 nM

CCN(CC)CCN(C)Cc1ccc2c(c1)-c1n[nH]c(=O)c3cccc(c13)O2 [Compound 4h, 10-{[(2-Diethylamino-ethyl)-methyl-amino]-methyl}-2H-7-oxa-1,2-diaza-benzo[de]anthracen-3-one]
IC50 [2]: 100 nM

O=c1[nH]nc2c3c(cccc13)Oc1ccc(CN3CCC(O)CC3)cc1-2 [Compound 4i]
IC50 [2]: 40 nM | SNCV at the end of the experiment, mean ([1]; CDDP 2 mg/kg IP twice a week for 4 weeks + 4i 40 mg/kg PO daily): 34.08 m/sec | SNCV Mean Diff., CDDP vs CDDP + 4i [1, 4]: −5.460 | tail nerve conduction velocity impairment due to chronic cisplatin treatment [1]: attenuate the deficits in nerve conduction velocity | tail nerve conduction velocity impairment due to chronic cisplatin treatment ([1]; listed as compound 4i): statistically significant reduction | growth of B16 melanoma vs TMZ alone (B16 melanoma): significantly reduced | Morphometry on DRG, Nu (nucleus), mean (DRG neurons; CDDP + 4i): 121.8 μm^2 | Morphometry on DRG, Nucl (nucleolus), mean (DRG neurons; CDDP + 4i): 8.069 μm^2 | Morphometry on DRG, Soma, mean (DRG neurons; CDDP + 4i): 822.1 μm^2 | Nucleolus Mean Diff., CDDP vs CDDP + 4i (DRG neurons; [4]): −0.4177 | Soma Mean Diff., CDDP vs CDDP + 4i (DRG neurons; [4]): −138.7 | effect on DRG neuron morphometry (DRG neurons; cisplatin-treated rats with compound 4i): significant effect only on the somatic size of DRG neurons | MST ([3]; Compound 4i 10 mg/kg po + TMZ 100 mg/kg ip x 5 days): 17 days | ILS vs TMZ ([3]; Compound 4i 10 mg/kg po + TMZ x 5): 21% | MST ([3]; Compound 4i 40 mg/kg po + TMZ 100 mg/kg ip x 5 days): 21 days | ILS vs TMZ ([3]; Compound 4i 40 mg/kg po + TMZ x 5): 50% | mean survival time vs TMZ as single agent ([3]; compound 4i + TMZ combination, mice bearing B16 melanoma): significantly higher

CCN(CCO)Cc1ccc2c(c1)-c1n[nH]c(=O)c3cccc(c13)O2 [Compound 4j, 10-{[Ethyl-(2-hydroxy-ethyl)-amino]-methyl}-2H-7-oxa-1,2-diaza-benzo[de]anthracen-3-one]
IC50 [2]: 100 nM

CC(C)N(Cc1ccc2c(c1)-c1n[nH]c(=O)c3cccc(c13)O2)C(C)C [Compound 4k, 10-[(Diisopropylamino)-methyl]-2H-7-oxa-1,2-diaza-benzo[de]anthracen-3-one]
IC50 [2]: 300 nM

O=c1[nH]nc2c3c(cccc13)Oc1ccc(CN3CCC(O)C3)cc1-2 (stereo not shown) [Compound 4l, 10-(3-Hydroxy-pyrrolidin-1-ylmethyl)-2H-7-oxa-1,2-diaza-benzo[de]anthracen-3-one]
IC50 [2]: 100 nM

O=c1[nH]nc2c3c(cccc13)Oc1ccc(CN3CCC(CCO)CC3)cc1-2 [Compound 4m, 10-[4-(2-Hydroxy-ethyl)-piperidin-1-ylmethyl]-2H-7-oxa-1,2-diaza-benzo[de]anthracen-3-one]
IC50 [2]: 100 nM

O=c1[nH]nc2c3c(cccc13)Oc1ccc(CN3CCC4(CC3)OCCO4)cc1-2 [Compound 4n, 10-(1,4-Dioxa-8-aza-spiro[4.5]dec-8-ylmethyl)-2H-7-oxa-1,2-diaza-benzo[de]anthracen-3-one]
IC50 [2]: 100 nM

O=c1[nH]nc2c3c(cccc13)Oc1ccc(CN3CCCC(O)C3)cc1-2 (stereo not shown) [Compound 4o, 10-(3-Hydroxy-piperidin-1-ylmethyl)-2H-7-oxa-1,2-diaza-benzo[de]anthracen-3-one]
IC50 [2]: 50 nM

O=c1[nH]nc2c3c(cccc13)Oc1ccc(CN3CC(O)C3)cc1-2 [Compound 4p, 10-(3-Hydroxy-azetidin-1-ylmethyl)-2H-7-oxa-1,2-diaza-benzo[de]anthracen-3-one]
IC50 [2]: 30 nM

O=c1[nH]nc2c3c(cccc13)Oc1ccc(CNCCN3CCOCC3)cc1-2 [Compound 4q, 10-[(2-Morpholin-4-yl-ethylamino)-methyl]-2H-7-oxa-1,2-diaza-benzo[de]anthracen-3-one]
IC50 [2]: 50 nM

O=c1[nH]nc2c3c(cccc13)Oc1ccc(CN[C@H]3CC[C@H](O)CC3)cc1-2 [Compound 4r, 10-[(4-Hydroxy-cyclohexylamino)-methyl]-2H-7-oxa-1,2-diaza-benzo[de]anthracen-3-one]
IC50 [2]: 30 nM

O=C1CCN(Cc2ccc3c(c2)-c2n[nH]c(=O)c4cccc(c24)O3)CC1 [Compound 4s, 10-(4-Oxo-piperidin-1-ylmethyl)-2H-7-oxa-1,2-diaza-benzo[de]anthracen-3-one]
IC50 [2]: 120 nM

Cn1nnc2c(C(N)=O)ncn2c1=O [TMZ, temozolomide, reference compound]
MST ([3]; TMZ alone 100 mg/kg ip x 5): 14 days
